Among the data in PubChem BioAssay (NCI) are TGI values, retold here.

Assay in all cases: NCI tumour cell line growth inhibition, 48 h
For experiment [1], the system named is SR leukemia.
Experiment [2] relates to RXF 393 renal.
Experiment [3] deals with NCI-H226 lung.
The subject of experiment [4] is HT29 colon.
The test system of experiment [5] is DU-145 prostate.
In experiment [6] the test system is IGROV1 ovarian.
Experiment [7] has as its system OVCAR-8 ovarian.
Experiment [8] concerns T-47D breast.
In experiment [9] the test system is SF-295 CNS.
Experiment [10] concerns LOX IMVI melanoma.
Experiment [11] relates to MCF7 breast.
Experiment [12] deals with HS 578T breast.
In experiment [13] the test system is MDA-MB-435.
For experiment [14], the system named is NCI/ADR-RES ovarian.
The subject of experiment [15] is SK-OV-3 ovarian.
Experiment [16] concerns SNB-75 CNS.
For experiment [17], the system named is SNB-19 CNS.
Experiment [18] relates to BT-549 breast.
The subject of experiment [19] is COLO 205 colon.
Experiment [20] relates to SN12C renal.

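Values below derive from 48-hour exposures of cells grown in 96-well plates, with endpoints linearly interpolated between the two concentrations bracketing the appropriate inhibition level. At the TGI there is no net growth.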 Where only a bound is given, the exact number is not on record here.

Consider `CC1=NN(c2cccc(Cl)c2)C2(SCC(=O)N2c2nc3ccccc3s2)/C1=C\c1ccc(N(C)C)cc1` (stereo not given), for which the TGI is greater than 100 µM in experiment [1]; 44.8 µM in experiment [2]; greater than 100 µM in experiment [3]; greater than 100 µM in [4]; greater than 100 µM in experiment [5]; greater than 100 µM in [6]. The TGI was greater than 100 µM in [7]; greater than 100 µM in experiment [8]; greater than 100 µM in [9]; greater than 100 µM in experiment [10]; greater than 100 µM in experiment [11]; 75.7 µM in [12]. In addition, the TGI in experiment [13] was greater than 100 µM; in experiment [14], greater than 100 µM; in [15], 39.6 µM.

`COc1ccc(P2(=S)Oc3ccccc3-c3ccccc3O2)cc1`: the TGI in experiment [16], in experiment [3], in experiment [17], in experiment [18], in experiment [5] and in experiment [6] was greater than 100 µM throughout. In addition, the TGI was greater than 40.6 µM in [7]; greater than 100 µM in experiment [8]; greater than 100 µM in experiment [9]; greater than 100 µM in [10]; greater than 40.4 µM in [11]; greater than 100 µM in experiment [12]. Besides, the figures for the TGI in [19] and in experiment [14] were 2.77 µM and greater than 100 µM, respectively.

With `CC(C)(Oc1ccccc1)C(=O)Sc1c(-c2ccccc2)c(=O)n(-c2ccccc2)c(=S)n1-c1ccccc1`, the TGI is 57.8 µM in experiment [1]; 63.2 µM in experiment [2]; greater than 100 µM in experiment [16]; greater than 100 µM in [3]; greater than 100 µM in [4]; greater than 100 µM in experiment [17]. Besides, the TGI in experiment [5] was greater than 100 µM; in [6], 47.6 µM; in experiment [7], 44.1 µM; in [8], greater than 100 µM; in experiment [9], greater than 100 µM; in experiment [20] it was greater than 100 µM. For the same molecule, the TGI in [10] is greater than 100 µM; in [11], greater than 100 µM; in experiment [12] it was 85.4 µM; in [19] it was greater than 100 µM; in experiment [13] it was 52.4 µM; in experiment [14], greater than 100 µM. The molecule also came in with a TGI in [15] of 87.1 µM.

Regarding `COc1ccc(/C=C2\CN(C)C/C(=C\c3ccc(OC)cc3)C2=O)cc1`, the TGI in [1], in experiment [2], in [16], in experiment [3], in [4] and in experiment [17] was greater than 100 µM each time. The TGI in experiment [5], in [6], in [8], in experiment [9], in experiment [20] and in experiment [10] was greater than 100 µM throughout. Moreover, the TGI in experiment [12], in experiment [19], in experiment [13] and in [14] was greater than 100 µM throughout.

On to `C1CCCCC2(CCCCCCCCC3(CCC1)OCCO3)OCCO2`, for which the TGI in [1], in experiment [2], in experiment [16], in experiment [3], in experiment [4] and in experiment [17] was greater than 100 µM each time. For the same molecule, the TGI in experiment [5], in [6], in experiment [7], in experiment [8], in experiment [9] and in [20] was greater than 100 µM in each case. For the same molecule, the TGI in experiment [10], in [11], in experiment [12], in experiment [19], in experiment [13] and in [14] was greater than 100 µM throughout. Moreover, the TGI in experiment [15] was greater than 100 µM.

Regarding `COc1cccc(C2c3cc4c(cc3OC(N3CCOCC3)C2C)OCO4)c1OC` (stereo not given), the TGI in experiment [1] was 24.4 µM; in experiment [16], 37.2 µM; in experiment [4], 15.8 µM; in experiment [17], 24.2 µM; in experiment [5], 28.5 µM; in [6], 31.2 µM. For the same molecule, the TGI in [7] was greater than 100 µM; in experiment [8] it was 79.1 µM; in [9] it was 32.9 µM; in experiment [20], 48.4 µM; in experiment [10] it was 12.6 µM; in experiment [11], greater than 100 µM. For the same molecule, the TGI in [12] was determined as 63.5 µM; in [19], 28.2 µM; in experiment [13] it was 33.8 µM; in [14], 29.7 µM.

In the case of `N#CC(C#N)=C/C=C(\Sc1c(Cl)c(Cl)nc(Cl)c1Cl)c1ccc(Cl)cc1`, the TGI in experiment [1] was 68.8 µM; in experiment [2], 40 µM; in experiment [16], 44.9 µM; in experiment [3] it was 67.9 µM; in [4], greater than 100 µM; in [17], 43 µM. Besides, the TGI was 47.5 µM in experiment [5]; 53.6 µM in experiment [6]; greater than 100 µM in experiment [7]; greater than 100 µM in experiment [8]; 44.9 µM in experiment [9]; 42.4 µM in [20]. Moreover, the TGI in experiment [10] was 20.5 µM; in experiment [11], greater than 100 µM; in experiment [12], 63.7 µM; in [19], 55.4 µM; in [13] it was 20.3 µM; in experiment [14], 36.1 µM. Besides, the TGI in [15] amounted to 58.9 µM.

With `O=C(CC(C(=O)c1cccs1)c1cccs1)c1ccsc1` (stereo not given), the TGI in experiment [1], in experiment [16], in experiment [3], in experiment [4], in experiment [17] and in [5] was greater than 100 µM throughout. In addition, the TGI in experiment [6], in experiment [7], in [8], in experiment [20], in experiment [10] and in experiment [11] was greater than 100 µM each time. Moreover, the TGI in experiment [12] is greater than 100 µM; in experiment [19], greater than 100 µM; in experiment [13], 43.1 µM; in experiment [14], greater than 100 µM; in experiment [15] it was greater than 100 µM.
